From ChEMBL document CHEMBL3797052 (Eur J Med Chem, 2016)

Legend:
Format in all cases: functional
[1] = Cytotoxicity against human HCT116 cells assessed as growth inhibition at 100 uM after 2 days by MTT assay; settings: HCT-116, 48 h, read-out: GI
[2] = Cytotoxicity against human HCT116 cells assessed as growth inhibition at 10 uM after 2 days by MTT assay; settings: HCT-116, 48 h, read-out: GI
[3] = Cytotoxicity against human SKBR3 cells assessed as growth inhibition at 100 uM after 2 days by MTT assay; settings: SK-BR-3, 48 h, read-out: GI
[4] = Cytotoxicity against human SKBR3 cells assessed as growth inhibition at 10 uM after 2 days by MTT assay; settings: SK-BR-3, 48 h, read-out: GI
[5] = Antiproliferative activity against human MOLT4 cells assessed as cell growth at 10^-5 M after 48 hrs by sulforhodamine B assay; settings: MOLT-4, 48 h, read-out: Activity
[6] = test system: SR; assay: Antiproliferative activity against human SR cells assessed as cell growth at 10^-5 M after 48 hrs by sulforhodamine B assay; settings: read-out: Activity
[7] = test system: EKVX; assay: Antiproliferative activity against human EKVX cells assessed as cell growth at 10^-5 M after 48 hrs by sulforhodamine B assay; settings: read-out: Activity
[8] = Antiproliferative activity against human HOP92 cells assessed as cell growth at 10^-5 M after 48 hrs by sulforhodamine B assay; settings: HOP-92, 48 h, read-out: Activity
[9] = test system: NCI-H226; assay: Antiproliferative activity against human NCI-H226 cells assessed as cell growth at 10^-5 M after 48 hrs by sulforhodamine B assay; settings: NCI-H226, 48 h, read-out: Activity
[10] = test system: NCI-H23; assay: Antiproliferative activity against human NCI-H23 cells assessed as cell growth at 10^-5 M after 48 hrs by sulforhodamine B assay; settings: NCI-H23, 48 h, read-out: Activity
[11] = test system: NCI-H322M; assay: Antiproliferative activity against human NCI-H322M cells assessed as cell growth at 10^-5 M after 48 hrs by sulforhodamine B assay; settings: read-out: Activity
[12] = Antiproliferative activity against human HCT116 cells assessed as cell growth at 10^-5 M after 48 hrs by sulforhodamine B assay; settings: HCT-116, 48 h, read-out: Activity
[13] = Antiproliferative activity against human HCT15 cells assessed as cell growth at 10^-5 M after 48 hrs by sulforhodamine B assay; settings: HCT-15, 48 h, read-out: Activity
[14] = test system: KM12; assay: Antiproliferative activity against human KM12 cells assessed as cell growth at 10^-5 M after 48 hrs by sulforhodamine B assay; settings: KM12, 48 h, read-out: Activity
[15] = Antiproliferative activity against human SW620 cells assessed as cell growth at 10^-5 M after 48 hrs by sulforhodamine B assay; settings: SW-620, 48 h, read-out: Activity
[16] = Antiproliferative activity against human SF268 cells assessed as cell growth at 10^-5 M after 48 hrs by sulforhodamine B assay; settings: SF-268, 48 h, read-out: Activity
[17] = Antiproliferative activity against human SF295 cells assessed as cell growth at 10^-5 M after 48 hrs by sulforhodamine B assay; settings: SF-295, 48 h, read-out: Activity
[18] = Antiproliferative activity against human SF539 cells assessed as cell growth at 10^-5 M after 48 hrs by sulforhodamine B assay; settings: SF-539, 48 h, read-out: Activity
[19] = Antiproliferative activity against human SNB19 cells assessed as cell growth at 10^-5 M after 48 hrs by sulforhodamine B assay; settings: SNB-19, 48 h, read-out: Activity
[20] = Antiproliferative activity against human SNB75 cells assessed as cell growth at 10^-5 M after 48 hrs by sulforhodamine B assay; settings: SNB-75, 48 h, read-out: Activity
[21] = test system: Malme-3M; assay: Antiproliferative activity against human MALME-3M cells assessed as cell growth at 10^-5 M after 48 hrs by sulforhodamine B assay; settings: read-out: Activity
[22] = test system: M14; assay: Antiproliferative activity against human M14 cells assessed as cell growth at 10^-5 M after 48 hrs by sulforhodamine B assay; settings: M14, 48 h, read-out: Activity
[23] = test system: SK-MEL-28; assay: Antiproliferative activity against human SK-MEL-28 cells assessed as cell growth at 10^-5 M after 48 hrs by sulforhodamine B assay; settings: SK-MEL-28, 48 h, read-out: Activity
[24] = test system: SK-MEL-5; assay: Antiproliferative activity against human SK-MEL-5 cells assessed as cell growth at 10^-5 M after 48 hrs by sulforhodamine B assay; settings: SK-MEL-5, 48 h, read-out: Activity
[25] = Antiproliferative activity against human UACC257 cells assessed as cell growth at 10^-5 M after 48 hrs by sulforhodamine B assay; settings: UACC-257, 48 h, read-out: Activity
[26] = Antiproliferative activity against human IGROV1 cells assessed as cell growth at 10^-5 M after 48 hrs by sulforhodamine B assay; settings: IGROV-1, 48 h, read-out: Activity
[27] = Antiproliferative activity against human OVCAR5 cells assessed as cell growth at 10^-5 M after 48 hrs by sulforhodamine B assay; settings: OVCAR-5, 48 h, read-out: Activity
[28] = test system: 786-0; assay: Antiproliferative activity against human 786-0 cells assessed as cell growth at 10^-5 M after 48 hrs by sulforhodamine B assay; settings: 786-0, 48 h, read-out: Activity
[29] = test system: A498; assay: Antiproliferative activity against human A498 cells assessed as cell growth at 10^-5 M after 48 hrs by sulforhodamine B assay; settings: A498, 48 h, read-out: Activity
[30] = test system: ACHN; assay: Antiproliferative activity against human ACHN cells assessed as cell growth at 10^-5 M after 48 hrs by sulforhodamine B assay; settings: read-out: Activity
[31] = Antiproliferative activity against human Caki1 cells assessed as cell growth at 10^-5 M after 48 hrs by sulforhodamine B assay; settings: CAKI-1, 48 h, read-out: Activity
[32] = Antiproliferative activity against human RXF393 cells assessed as cell growth at 10^-5 M after 48 hrs by sulforhodamine B assay; settings: RXF 393, 48 h, read-out: Activity
[33] = test system: SN12C; assay: Antiproliferative activity against human SN12C cells assessed as cell growth at 10^-5 M after 48 hrs by sulforhodamine B assay; settings: read-out: Activity
[34] = Antiproliferative activity against human DU145 cells assessed as cell growth at 10^-5 M after 48 hrs by sulforhodamine B assay; settings: DU-145, 48 h, read-out: Activity
[35] = test system: MCF7; assay: Antiproliferative activity against human MCF7 cells assessed as cell growth at 10^-5 M after 48 hrs by sulforhodamine B assay; settings: MCF7, 48 h, read-out: Activity
[36] = Antiproliferative activity against human Hs 578T cells assessed as cell growth at 10^-5 M after 48 hrs by sulforhodamine B assay; settings: read-out: Activity
[37] = Antiproliferative activity against human BT549 cells assessed as cell growth at 10^-5 M after 48 hrs by sulforhodamine B assay; settings: BT-549, 48 h, read-out: Activity
[38] = test system: MDA-MB-468; assay: Antiproliferative activity against human MDA-MB-468 cells assessed as cell growth at 10^-5 M after 48 hrs by sulforhodamine B assay; settings: MDA-MB-468, 48 h, read-out: Activity

CNC(=O)c1cc(Oc2ccc3nc(NC(=O)c4ccc5c(c4)OCCO5)sc3c2)ccn1
inhibition of growth at 100 µM [1]: 49.9%
inhibition of growth at 10 µM [2]: 10.5%
inhibition of growth at 100 µM [3]: 62.3%
inhibition of growth at 10 µM [4]: 50.7%
growth at 10 µM [5]: 94.7%
growth at 10 µM [6]: 88.3%
growth at 10 µM [7]: 99%
growth at 10 µM [8]: 93.5%
growth at 10 µM [9]: 99.6%
growth at 10 µM [10]: 90%
growth at 10 µM [11]: 99%
growth at 10 µM [12]: 89.6%
growth at 10 µM [13]: 105%
growth at 10 µM [14]: 95.3%
growth at 10 µM [15]: 107%
growth at 10 µM [16]: 96.6%
growth at 10 µM [17]: 99.7%
growth at 10 µM [18]: 100%
growth at 10 µM [19]: 101%
growth at 10 µM [20]: 95.8%
growth at 10 µM [21]: 92.5%
growth at 10 µM [22]: 100%
growth at 10 µM [23]: 103%
growth at 10 µM [24]: 95.8%
growth at 10 µM [25]: 95%
growth at 10 µM [26]: 99.5%
growth at 10 µM [27]: 99.1%
growth at 10 µM [28]: 97.3%
growth at 10 µM [29]: 95.1%
growth at 10 µM [30]: 106%
growth at 10 µM [31]: 97.7%
growth at 10 µM [32]: 102%
growth at 10 µM [33]: 107%
growth at 10 µM [34]: 98.5%
growth at 10 µM [35]: 90.3%
growth at 10 µM [36]: 112%
growth at 10 µM [37]: 89.8%
growth at 10 µM [38]: 108%

CNC(=O)c1cc(Oc2ccc3nc(NC(=O)Nc4cc(C(F)(F)F)cc(C(F)(F)F)c4)sc3c2)ccn1
inhibition of growth at 100 µM [1]: 98.4%
inhibition of growth at 10 µM [2]: 87.5%
inhibition of growth at 100 µM [3]: 96.3%
inhibition of growth at 10 µM [4]: 88.1%
growth at 10 µM [6]: -47%
growth at 10 µM [7]: -31%
growth at 10 µM [8]: -69%
growth at 10 µM [9]: -57%
growth at 10 µM [10]: -59%
growth at 10 µM [11]: -57%
growth at 10 µM [12]: -90%
growth at 10 µM [13]: -70%
growth at 10 µM [14]: -58%
growth at 10 µM [15]: -74%
growth at 10 µM [16]: -77%
growth at 10 µM [17]: -89%
growth at 10 µM [18]: -78%
growth at 10 µM [19]: -34%
growth at 10 µM [20]: -66%
growth at 10 µM [21]: -74%
growth at 10 µM [22]: -74%
growth at 10 µM [23]: -75%
growth at 10 µM [24]: -76%
growth at 10 µM [25]: -82%
growth at 10 µM [26]: -62%
growth at 10 µM [27]: -64%
growth at 10 µM [28]: -89%
growth at 10 µM [29]: -79%
growth at 10 µM [30]: -77%
growth at 10 µM [31]: -77%
growth at 10 µM [32]: -69%
growth at 10 µM [33]: -58%
growth at 10 µM [34]: -69%
growth at 10 µM [35]: -59%
growth at 10 µM [36]: -34%
growth at 10 µM [37]: -71%
growth at 10 µM [38]: -70%

CNC(=O)c1cc(Oc2ccc3nc(NC(=O)Nc4ccc(Cl)cc4)sc3c2)ccn1
inhibition of growth at 100 µM [1]: 85.2%
inhibition of growth at 10 µM [2]: 57.4%
inhibition of growth at 100 µM [3]: 77.4%
inhibition of growth at 10 µM [4]: 50.8%
growth at 10 µM [5]: 85.4%
growth at 10 µM [6]: 42.7%
growth at 10 µM [7]: 53.8%
growth at 10 µM [8]: 63.3%
growth at 10 µM [9]: 67.9%
growth at 10 µM [10]: 69%
growth at 10 µM [11]: 66.8%
growth at 10 µM [12]: 47.3%
growth at 10 µM [13]: 84.8%
growth at 10 µM [14]: 70%
growth at 10 µM [15]: 101%
growth at 10 µM [16]: 56.2%
growth at 10 µM [17]: 66.3%
growth at 10 µM [18]: 83.5%
growth at 10 µM [19]: 59.3%
growth at 10 µM [20]: 50.6%
growth at 10 µM [21]: 17.7%
growth at 10 µM [22]: 63%
growth at 10 µM [24]: 73.3%
growth at 10 µM [26]: 83.6%
growth at 10 µM [27]: 92.3%
growth at 10 µM [28]: 75.3%
growth at 10 µM [29]: 117%
growth at 10 µM [30]: 64.9%
growth at 10 µM [31]: 94.7%
growth at 10 µM [32]: 50.8%
growth at 10 µM [33]: 62.4%
growth at 10 µM [34]: 53.2%
growth at 10 µM [35]: 69.5%
growth at 10 µM [36]: 30.1%
growth at 10 µM [37]: 102%
growth at 10 µM [38]: 55.1%
